# Source: patent US10085449B2, “N-[1-((6-chloropyridin-3-yl)methyl)pyridin-2(1H)-ylidene]-2,2,2- trifluoroacetamide for control of agricultural/horticultural pests” (priority 2010, dated 2018)
# Columns and labels:
# green rice leafhopper = test: Green rice leafhopper control test (foliar application); format: in vivo; details: Nephotettix cincticeps, 96 h
# Experimental: Rice seedlings grown in pots were subjected to the foliar application of solutions of the inventive compounds at a predetermined concentration prepared to 50% acetone/water (containing 0.05% Tween 20). The treated seedlings were air dried, following which second-instar larvae were released onto the seedlings. The seedlings and larvae were then held in an incubation chamber at 25° C. (16-hour period of light, 8-hour dark period). Four days after released, the numbers of live and dead insects were counted, and the mortality was calculated from the following formula. This was a two-replication test. Mortality (%)=[number of dead insects/(number of live insects+number of dead insects)]×100
# [1] = tested on: house fly crude enzyme extract; test: In vitro metabolic test using house fly crude enzyme extract; format: in vitro ADME; details: house fly crude enzyme extract with NADP+ regenerating system, 25° C., 40 hours, LC/MS
# Experimental: As mentioned in Pest Management Science, 59(3), 347-352 (2003) and the Journal of Pesticide Science, 29(2), 110-116 (2004), imidacloprid is known to be inactivated by incurring oxidative metabolism, which is thought to be one mechanism of acquiring resistance to this agent. The following experiment was carried out to confirm the effects in pests which have acquired such resistance.
# An amount of 10 mL of a potassium phosphate buffer solution (pH 7.4, containing 1 mM EDTA) was added to adult house flies (0.645 g), and the flies were thoroughly homogenized in a Physcotron (Niti-On Medical and Physical Instruments Manufacturing Co.). The homogenate was then centrifuged at 10,000 g for 15 minutes. The resulting supernatant was additionally centrifuged at 100,000 g for 60 minutes, giving a precipitate. The precipitate was dissolved in 1 mL of a potassium phosphate buffer, and the resulting solution was used as the crude enzyme extract. The enzyme extraction operations were all carried out on ice or at 4° C.
# The reagents were mixed in the following proportions within a 1.5 mL tube, and the reaction was effected at 25° C. for 40 hours. Following the reaction, 1 mL of acetone was added and the mixture was stirred, following which the precipitate that formed was centrifuged at 12,000 rpm for 5 minutes. […]
# small brown planthopper = test: whole plant or invertebrate; format: in vivo; details: Laodelphax striatellus, 72 h
# Method in brief: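 Rice seedlings in pots soil-drenched with compound at a set concentration in 10% acetone/water; ten second-instar larvae released per seedling 3 days later. Held at 25° C. (16 h light/8 h dark) and scored live/dead 3 days after release. Mortality (%) = dead/(live+dead)×100; two replications.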
# [2] = soil, read-out: Insecticidal effects (mortality), small brown planthopper second-instar larvae
smiles,measurement,setting,value
"O=C(N=c1ccccn1Cc1ccc(Cl)nc1)C(F)(F)F [Compound 212, N-[1-((6-chloropyridin-3-yl)methyl)pyridin-2(1H)-ylidene]-2,2,2-trifluoroacetamide]",mortality at 100 ppm,green rice leafhopper,≥ 80%
same,Sum of the surface area percentages for the metabolites,[1],0.08%
same,pest or weed control at 0.002 mg/pot,"small brown planthopper; rice soil drenching, 0.002 mg/pot (Table 13), read-out: Small brown planthopper (rice soil drenching), effect",85%
same,pest or weed control at 0.005 mg/pot,"small brown planthopper; rice soil drenching, 0.005 mg/pot (Table 13), read-out: Small brown planthopper (rice soil drenching), effect",95%
same,pest or weed control at 0.01 mg/pot,"small brown planthopper; rice soil drenching, 0.01 mg/pot (Table 13), read-out: Small brown planthopper (rice soil drenching), effect",100%
same,pest or weed control at 0.05 mg/pot,"small brown planthopper; rice soil drenching, 0.05 mg/pot (Table 13), read-out: Small brown planthopper (rice soil drenching), effect",100%
same,mortality at 0.005 mg/seedling,small brown planthopper; soil,95%
same,mortality at 0.05 mg/seedling,small brown planthopper; soil,≥ 80%
same,mortality at 0.002 mg/pot,small brown planthopper; [2],85%
same,mortality at 0.005 mg/pot,small brown planthopper; [2],95%
same,mortality at 0.01 mg/pot,small brown planthopper; [2],100%
same,mortality at 0.05 mg/pot,small brown planthopper; [2],100%
